These are literature values, as cited in US20250387524A1, “METHOD AND SYSTEM FOR THE PRODUCTION OF DISINFECTION AND/OR STERILISATION SOLUTIONS” (UNIVERSITAT JAUME I, priority 2022, published 2025).

For the data set the following is noted: EU-US approved.

On to `O=CCCCC=O` [Glutaraldehyde], for which the Minimum biocidal concentration is given as no less than 2%.
Turning to `O=Cc1ccccc1C=O` [Orto-phtalaldehyde], the Minimum biocidal concentration is recorded as 0.55%.
